According to patent US7678390B2, “Carbon monoxide as a biomarker and therapeutic agent” (priority 1999, dated 2010):

Legend:
[1] = test system: rats exposed to hyperoxia (>98% O2); assay: Survival of rats in lethal hyperoxia in the presence of CO; type: in vivo, rat; settings: for % Survival 72 h / % Survival 100 h: hyperoxia (>98%)
Text: Pathogen-free male Sprague-Dawley rats (250-300 g) were purchased from Harlan Sprague-Dawley (Indianapolis, Ind.) and allowed to acclimate upon arrival for 7 days prior to experimentation. Animals were fed rodent chow and water ad libitum. All experimental protocols were approved by the Animal Care and Use Committee.
(§1) Animals were exposed to >98% O2 or 98% O2+CO mixtures at a flow rate of 12 liters/min in a 3.70-cubic-foot glass exposure chamber. Animals were supplied food and water during the exposures. CO at a concentration of 1% (10,000 ppm) in compressed air was mixed with >98% O2 in a stainless steel mixing cylinder prior to entering the exposure chamber. By varying the flow rates of CO into the mixing cylinder, concentrations delivered to the exposure chamber were controlled. Because the flow rate was primarily determined by the O2 flow, only the CO flow was changed to generate the different concentrations delivered to the exposure chamber. A carbon monoxide analyzer (Interscan Corporation, Chatsworth, Calif.) was used to measure CO levels continuously in the chamber. Gas samples were taken by the analyzer through a port in the top of the exposure chamber at a rate of 1 liter/min and analyzed by electrochemical detection with a sensitivity of 10 ppm to 600 ppm. CO levels in the chamber were recorded at hourly intervals and there were no changes in chamber CO concentrations once the chamber had equilibrated. O2 concentrations in the chamber were determined using a gas spectrometer.
We used clinically relevant in vivo models of oxidative stress to test the hypothesis that CO mediates the protective effects of HO-1 against oxidative stress. Hyperoxia when administered to animals produces pathophysiologic changes similar to those seen in human adult respiratory distress syndrome (ARDS) (Lee, et al., Am. J. Resp Cell Mol Biol. 14: 556-568; and Clerch, and Massaro, J. Clin. Invest. 91: 499-1508). […] These rats will uniformly die by 72 h of continuous hyperoxic exposure (Lee, et al. and Clerch, supra). In this study, one group of rats were placed in hyperoxia (>98% oxygen O2) alone while the second group of rats were placed in an identical chamber and exposed to the same levels of hyperoxia in the presence of a low concentration of CO (250 ppm). […] We observed concentration dependent protection against hyperoxia at both 72 and 100 h of hyperoxia exposure (Table 1). (P-value for the association between survival and CO concentration is 0.001 by logistic regression). Carboxyhemoglobin levels, a standard measurement of CO levels in the blood, correlated with increasing concentrations of CO exposure and survival of animals to lethal hyperoxia (Table 1, below).

[2] = test system: IL-10(−/−) null mice given LPS; assay: LPS-induced serum TNF-α in IL-10(-/-) null mice; type: in vivo; settings: Mus musculus, IL-10(−/−) mice, CO 250 ppm, 1 h, read-out: inhibition of serum TNF-α levels
Text: Animals. Male C57BL/6 and IL-10 (−/−) mice were purchased from Jackson Laboratory (Bar Harbor, Me.), and allowed to acclimate for one week with rodent chow and water ad libitum. The MKK (−/−) mice were generated as previously described [Lu, et al., EMBO J. 18:1845-1857 (1999)]. Wild type littermates were used as controls. All animals were housed in accordance with guidelines from the American Association for Laboratory Animal Care and Research Protocols and were approved by the Animal Care and Use Committee of Yale University School of Medicine. Reagents. All reagents were purchased from Sigma Chemical Co. (St Louis, Mo.) unless specified otherwise. Plasmid Construct. Plasmid pSFFV/HO-1 was constructed by insertion of the rat HO-1 cDNA [Shibahara, et al., Proc. Natl. Acad. Sci. USA. 82: 7865-7869 (1985)] downstream of the Friend spleen focus-forming virus 5′ long-terminal repeat in the mammalian expression vector pSFFV/neo [Fuhlbrigge, et al, Proc. Natl. Acad. Sci. USA. 85: 5649-5653 (1988)] (kindly provided by Stanley Korsmeyer). Transfection. […] Gas samples were taken by the analyzer through a port in the top of the chambers at a rate of 1 L/min and analyzed by electrochemical detection, with a sensitivity of 10-600 ppm. Concentration levels were measured hourly and there were no fluctuations in the CO concentrations once the chamber had equilibrated (approximately 5 min). […]

[3] = test system: rats; assay: Tolerability of low concentrations of CO in rats; type: in vivo, rat
Text: as §1

Compound: [C-]#[O+] [CO, carbon monoxide]
- survival in hyperoxia ([1]; hyperoxia (>98% O2), CO 250 ppm, 72 h): all animals were alive at the 72 h time point
- % Survival 72 h ([1]; CO 50 ppm, 72 h): 33%
- % Survival 100 h ([1]; CO 50 ppm): 0%
- % Survival 72 h ([1]; CO 100 ppm, 72 h): 50%
- % Survival 100 h ([1]; CO 100 ppm): 50%
- % Survival 72 h ([1]; CO 250 ppm, 72 h): 100%
- % Survival 100 h ([1]; CO 250 ppm): 80%
- % Survival 72 h ([1]; CO 500 ppm, 72 h): 100%
- % Survival 100 h ([1]; CO 500 ppm): 80%
- inhibition at 250 ppm [2]: 66%
- 500 ppm as fraction of the lethal concentration of CO ([3]; in our model (data not shown)): one twentieth
- untoward effects ([3]; rats exposed to CO (50-500 ppm) alone): did not exhibit any untoward effects
